Target: Voltage-dependent N-type calcium channel subunit alpha-1B (Homo sapiens, UniProt Q00975)
Test: Inhibition of N-type Voltage Sensitive Calcium Channel (VSCC) using IMR-32 assay
Format: functional

Voltage-dependent N-type calcium channel subunit alpha-1B, sequence (Q00975 whole entry): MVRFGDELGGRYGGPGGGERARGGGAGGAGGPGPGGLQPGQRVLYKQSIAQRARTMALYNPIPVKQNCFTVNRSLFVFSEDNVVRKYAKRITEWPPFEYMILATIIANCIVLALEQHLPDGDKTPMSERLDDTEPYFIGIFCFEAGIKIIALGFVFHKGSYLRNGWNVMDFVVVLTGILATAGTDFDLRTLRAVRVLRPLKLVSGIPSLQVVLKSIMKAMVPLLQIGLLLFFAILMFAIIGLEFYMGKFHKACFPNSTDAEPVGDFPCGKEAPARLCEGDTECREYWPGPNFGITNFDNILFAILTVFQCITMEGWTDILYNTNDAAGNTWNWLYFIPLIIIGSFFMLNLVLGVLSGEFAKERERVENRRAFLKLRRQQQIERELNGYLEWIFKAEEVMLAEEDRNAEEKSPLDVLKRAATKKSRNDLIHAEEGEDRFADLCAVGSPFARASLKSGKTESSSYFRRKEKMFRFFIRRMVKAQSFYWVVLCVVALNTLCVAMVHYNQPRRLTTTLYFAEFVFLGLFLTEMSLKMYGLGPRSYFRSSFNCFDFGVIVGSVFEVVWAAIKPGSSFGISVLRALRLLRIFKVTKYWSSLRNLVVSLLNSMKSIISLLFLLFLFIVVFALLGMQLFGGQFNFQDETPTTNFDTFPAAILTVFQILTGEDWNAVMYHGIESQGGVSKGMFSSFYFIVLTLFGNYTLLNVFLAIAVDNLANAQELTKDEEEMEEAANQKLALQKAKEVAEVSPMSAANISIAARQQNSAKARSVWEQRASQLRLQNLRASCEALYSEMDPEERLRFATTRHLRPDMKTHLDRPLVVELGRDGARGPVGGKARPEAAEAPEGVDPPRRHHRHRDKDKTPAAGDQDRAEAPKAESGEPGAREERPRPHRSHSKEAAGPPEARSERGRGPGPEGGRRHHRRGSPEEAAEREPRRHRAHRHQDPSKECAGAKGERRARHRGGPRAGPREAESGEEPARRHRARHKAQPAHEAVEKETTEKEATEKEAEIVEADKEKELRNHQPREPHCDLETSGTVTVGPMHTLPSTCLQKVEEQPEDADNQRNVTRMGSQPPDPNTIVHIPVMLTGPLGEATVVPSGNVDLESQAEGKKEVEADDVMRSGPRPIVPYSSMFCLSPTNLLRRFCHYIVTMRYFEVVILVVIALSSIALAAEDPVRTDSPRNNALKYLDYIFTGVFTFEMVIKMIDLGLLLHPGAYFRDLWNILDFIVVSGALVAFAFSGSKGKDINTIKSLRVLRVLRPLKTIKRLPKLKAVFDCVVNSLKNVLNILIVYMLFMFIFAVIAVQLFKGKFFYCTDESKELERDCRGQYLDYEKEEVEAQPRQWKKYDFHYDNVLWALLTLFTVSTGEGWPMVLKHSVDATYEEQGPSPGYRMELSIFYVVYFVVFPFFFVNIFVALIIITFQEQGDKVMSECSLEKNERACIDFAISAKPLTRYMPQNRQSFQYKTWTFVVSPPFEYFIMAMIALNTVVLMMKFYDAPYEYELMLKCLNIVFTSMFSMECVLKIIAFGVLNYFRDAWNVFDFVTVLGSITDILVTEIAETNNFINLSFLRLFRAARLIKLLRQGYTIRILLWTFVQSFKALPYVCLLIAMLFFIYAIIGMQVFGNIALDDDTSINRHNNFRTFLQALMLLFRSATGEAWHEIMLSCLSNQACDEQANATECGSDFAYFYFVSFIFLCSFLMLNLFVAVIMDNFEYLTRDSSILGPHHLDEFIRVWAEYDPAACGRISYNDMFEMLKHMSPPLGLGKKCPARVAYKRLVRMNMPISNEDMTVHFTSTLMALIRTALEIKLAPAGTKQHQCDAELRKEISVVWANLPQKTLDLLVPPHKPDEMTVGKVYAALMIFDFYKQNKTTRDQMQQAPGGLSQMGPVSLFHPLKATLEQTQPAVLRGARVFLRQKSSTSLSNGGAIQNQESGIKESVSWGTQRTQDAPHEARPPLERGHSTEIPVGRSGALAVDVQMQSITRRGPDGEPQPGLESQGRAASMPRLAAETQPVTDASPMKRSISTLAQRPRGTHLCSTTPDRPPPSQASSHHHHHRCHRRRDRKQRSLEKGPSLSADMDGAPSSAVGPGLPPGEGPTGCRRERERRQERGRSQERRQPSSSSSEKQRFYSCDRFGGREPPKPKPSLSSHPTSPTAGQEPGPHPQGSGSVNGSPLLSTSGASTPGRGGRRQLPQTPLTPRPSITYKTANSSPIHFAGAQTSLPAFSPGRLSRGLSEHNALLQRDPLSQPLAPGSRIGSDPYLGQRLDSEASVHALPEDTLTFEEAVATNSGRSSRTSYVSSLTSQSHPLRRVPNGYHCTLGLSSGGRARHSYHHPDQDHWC

Row | Structure (SMILES) | IC50 [nM]
1 | CC(C)CCN(c1ccc(NCc2cnc[nH]2)cc1)C1CCN(C(=O)[C@H](CC(C)C)NC(=O)N2CCCCCC2)CC1 | 120000
2 | CC(C)CCN(c1ccc(OCc2ccccc2)cc1)C1CCN(C(=O)[C@H](CC(C)C)NC(=O)N2CCCCCC2)CC1 | 190
3 | CC(C)=CCN(c1ccc(OCc2ccccc2)cc1)C1CCN(C(=O)[C@H](CC(C)C)NC(=O)N2CCCCCC2)CC1 | 340

The remaining molecules from weak to strong by IC50, led by results:

Row | IC50 [nM] | Structure (SMILES)
4 | 1100 | CC(C)CCN(c1ccc(O)cc1)C1CCN(C(=O)[C@H](CC(C)C)NC(=O)N2CCCCCC2)CC1
5 | 1000 | CC(C)=CCN(c1ccccc1)C1CCN(C(=O)[C@H](CC(C)C)NC(=O)N2CCCCCC2)CC1
6 | 670 | CC(C)=CCN(c1ccc(CCc2ccccc2)cc1)C1CCN(C(=O)[C@H](CC(C)C)NC(=O)N2CCCCCC2)CC1

— ChEMBL document CHEMBL1132092, “Structure-activity relationship at the proximal phenyl group in a series of non-peptidyl N-type calcium channel antagonists” (Bioorg Med Chem Lett, 1999)
